Experimental data from patent US10308617B2, “Triazole benzamide derivatives and the compositions and methods of treatment regarding the same” (An2H Discovery Limited, priority 2016, dated 2019).

Each molecule was assayed against T1, Parkin ligase (Homo sapiens, UniProt O60260) (assay: Activity-Based Probe Assay using an Ubiquitin vinyl sulfone probe (TR-FRET)). Details: Parkin activation, HA-Ub-VS probe, heat activated Parkin; read-out: Probe Assay EC50 (μM) [Example 2].
T1 sequence (O60260 1-465): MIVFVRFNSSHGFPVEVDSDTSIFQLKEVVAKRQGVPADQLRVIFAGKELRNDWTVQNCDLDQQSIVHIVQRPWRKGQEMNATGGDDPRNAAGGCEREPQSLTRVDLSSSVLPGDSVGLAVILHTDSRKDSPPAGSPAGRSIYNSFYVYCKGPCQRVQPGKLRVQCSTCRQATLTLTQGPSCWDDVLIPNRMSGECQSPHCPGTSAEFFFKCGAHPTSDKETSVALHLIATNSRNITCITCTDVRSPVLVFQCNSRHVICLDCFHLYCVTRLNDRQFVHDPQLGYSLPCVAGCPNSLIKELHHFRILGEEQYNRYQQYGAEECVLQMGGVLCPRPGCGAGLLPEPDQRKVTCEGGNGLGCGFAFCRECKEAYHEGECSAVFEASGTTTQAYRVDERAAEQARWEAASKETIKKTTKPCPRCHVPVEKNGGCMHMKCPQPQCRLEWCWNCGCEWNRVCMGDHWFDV
Assay type: biochemical
Description: An Ubiquitin vinyl sulfone probe can be used that irreversibly binds to the active site cysteine of Parkin ligase. Covalent attachment of the probe to the Parkin can be monitored by TR-FRET. Candidate activator compounds can be identified by increasing the activity of Parkin ligase due to an increase in TR-FRET signal. Screening for activating compounds can be distinguished from the controls as follows: • 100% activation signal=Heat activated Parkin+100 nM control activator in DMSO. • 0% activation signal=Heat activated Parkin+DMSO only. • Parkin activators can be identified by an increase of the 0% activation signal TR-FRET signal.
• Assay Plate: White 384 well plate (Corning 3572) • Enzyme: Parkin-His tagged 203 μM (10.5 mg/ml) • Probe: Ubiquitin vinyl-sulfone (HA-Ub-VS Boston Biochem U-212) • DMSO: DMSO (Sigma cat # D4540-100ML) • Reaction Buffer: 50 mM HEPES (pH 8.5), 150 mM NaCl, 0.01% Tween 20, 0.1% BSA • Detection Buffer: 50 mM HEPES (pH 8.5), 150 mM NaCl, 0.01% Tween 20, 0.1% BSA, 800 mM KF • Detection Reagent A: 2.6 nM Anti-6HIS-Eu cryptate and 40 nM Anti-HA-XL665 in detection buffer • Eu cryptate: Anti-6HIS-Eu cryptate (CisBio 61HISKLA) • XL665: Anti-HA-XL665 (CisBio 610HAXLA) Enzyme Reaction (15 min pre incubation Parkin with activator only) • Parkin: 40 nM • HA-Ub-VS Probe: 70 nM • Activator/DMSO: 2× Activator/2% DMSO • Reaction time: 60 minutes • Temperature: 22° C. • Total volume: 10 μl reaction Detection Reaction • Take 10 μl of Enzyme Reaction above and add 10 μl detection Reagent A under the following conditions: • Reaction time: 60 minutes • Temperature: 22° C. • Total volume: 20 μl
Assay procedure (Using HP D-300 compound dispenser and Bravo for the operation): • 1) Heat activate Parkin in reaction buffer (500 μl/1.5 ml tube: Eppendorf Thermomixer 5 minutes, 400 rpm at 58° C. and put on ice until needed). • 2) Load assay plate wells with 4.8 μl 84.5 nM Parkin in reaction buffer by use of Bravo. • 3) Deliver 0.2 μl 200× activator candidates in DMSO by use of HP D-300 compound dispenser. Highest 200× concentration=[…] and then twofold dilutions. • 4) Spin 1000 rpm, 2 minutes, at room temp. • 5) Incubate plate for 15 minutes at room temp. • 6) Add 5 μl 140 nM HA-Ub-VS Probe in reaction buffer by use of Bravo. • 7) Spin 1000 rpm, 2 minutes, at room temp. • 8) Incubate plate for 60 minutes at room temp. • 9) Add 10 μl 2.6 nM Anti-6HIS-Eu cryptate and 40 nM Anti-HA-XL665 in detection buffer. • 10) Spin 1000 rpm, 2 minutes, at room temp. • 11) Incubate plate for 60 minutes at room temp. • 12) Read plates on Perkin Elmer Envision instrument with the following parameters: • LANCE dual laser protocol loaded into the Envision® software • Top Mirror: LANCE/DELFIA Duel/Bias (Bar code 446) • Emission Filter: APC 665 EM (Bar code 205) • 2nd Emission Filter: Europium 615 EM (Bar code 203) • Read 655 nm (channel 1) and 615 nm (channel 2) wavelengths on Envision®
Data Analysis: The Data can be read in CSV files. There are two tables in those CSV files, which are the values of 655 nm (channel 1) and 615 nm (channel 2) wavelengths respectively. The data is converted to an HTRF Ratio=(Channel 1/Channel 2)*10,000
The average of all the 0 uM controls (DMSO only)=BKGD (Background—0% activation). Subtract BKGD from each HTRF Ratio value=HTRF-BKGD. The average of all the […] 100 nM control activator in DMSO controls=Max (100% activation). The following equation is then used to calculate % Activation for each well/candidate as follows: % Activation=(HTRF-BKGD/Max)*100.
Graphpad Prisim was used with Transform X values: X=Log(X) and nonlinear regression (dose-response-stimulation): Log(agonist) vs Response—variable slope (four parameters) with constrains set to Bottom=0 and Top=100.
The Activity-Based Probe Assay was performed with various compounds in Tables 1-3.

Row | Compound | EC50 [µM]
1 | Cc1ccccc1C(=O)Nc1nc(NC(=O)c2ccccc2C)n(C(C)(C)C)n1 [Compound D3] | > 100
2 | Cc1cccc(C(=O)Nc2nc(NC(=O)c3cccc(C)c3)n(-c3ccccc3)n2)c1 [Compound F3] | > 100
3 | Cc1ccccc1C(=O)Nc1nc(-c2ccncn2)nn1-c1ccccc1 [Compound G3] | 74
4 | Cc1ccccc1C(=O)Nc1nc(NC(=O)c2ccccc2C)n(CC(C)C)n1 [Compound I3] | > 100
5 | Cc1ccccc1C(=O)Nc1nc(NC(=O)c2ccccc2C)n(C2CCCCC2)n1 [Compound J3] | 37
6 | Cc1ccccc1C(=O)Nc1nc(NCCc2ccccc2)n(-c2ccccc2)n1 [Compound L3] | > 100
7 | Cc1ccccc1C(=O)Nc1nc(N)n(-c2ccccc2)n1 [Compound N3] | > 100
8 | Cc1ccccc1C(=O)Nc1nc(NC(=O)c2ccccc2C)n(-c2ccc(F)cc2)n1 [Compound O3] | > 100

Results, then the molecule that gave them:

Row | EC50 [µM] | Compound
9 | > 100 | Cc1ccccc1C(=O)Nc1nc(NC(=O)c2ccccn2)n(-c2ccccc2)n1 [Compound A3]
10 | > 100 | Cc1ccccc1C(=O)Nc1nc(NC(=O)c2ccccc2C)n(-c2ccncc2)n1 [Compound B3]
11 | > 100 | Cc1ccccc1C(=O)Nc1nc(NC(=O)c2ccccc2F)n(-c2ccccc2)n1 [Compound E3]
12 | 17 | COc1ccccc1C(=O)Nc1nc(NC(=O)c2ccccc2C)nn1-c1ccccc1 [Compound K3]
13 | > 100 | Cc1ccccc1C(=O)Nc1nc(NC(=O)c2ccncc2)n(-c2ccccc2)n1 [Compound M3]
14 | 9 | Cc1ccccc1C(=O)Nc1nc(NC(=O)c2ccccn2)n(-c2ccccc2)n1 [Compound P3]
15 | > 100 | Cc1ccccc1C(=O)Nc1nc(NC(=O)c2ccccc2C)n(-c2cccnc2)n1 [Compound Y2]
